The values below are quoted from earlier work in publication PMC12039075 (Structure (London, England : 1993), 2022).

The data set concerns human nicotinic receptor (HNR) α4/β2 subunit.

Consider `CN1CCC[C@H]1c1cccnc1` [nicotine], for which the published affinity range was 0.6 to 10 nM.
